Assay results: patent US9663528B2, “Substituted 1,2,3,4,6,8,12,12a-octahydro-1,4-methanodipyrido[1,2-a:1',2'-d]pyrazines and methods for treating viral infections” (priority 2012, dated 2017)

Key:
in vitro = settings: human
Protocol: For the antiviral assay utilizing MT4 cells, 0.4 μL of […] test concentration of 3-fold serially diluted compound in DMSO was added to 40 μL of cell growth medium (RPMI 1640, 10% FBS, 1% penicilline/Streptomycine, 1% L-Glutamine, 1% HEPES) in each well of 384-well assay plates (10 concentrations) in quidruplicate.
1 mL aliquots of 2×10^6 MT4 cells are pre-infected for 1 and 3 hours respectively at 37° C. with 25 μL (MT4) or of either cell growth medium (mock-infected) or a fresh 1:250 dilution of an HIV-IIIb concentrated ABI stock (0.004 m.o.i. for MT4 cells). Infected and uninfected cells are diluted in cell growth medium and 35 μL of 2000 (for MT4) cells is added to each well of the assay plates.
Assay plates were then incubated in a 37° C. incubator. After 5 days of incubation, 25 μL of 2× concentrated CellTiter-Glo™ Reagent (catalog #G7573, Promega Biosciences, Inc., Madison, Wis.) was added to each well of the assay plate. Cell lysis was carried out by incubating at room temperature for 2-3 minutes, and then chemiluminescence was read using the Envision reader (PerkinElmer).

PXR = PXR (Homo sapiens (Human), UniProt O75469); experiment: Human PXR activation assay (luciferase reporter gene assay, DPX2 cells); assay type: cell-based; settings: human
Protocol: A stably transformed tumor cell line (DPX2) was plated on 96-well microtiter plates. DPX2 cells harbor the human PXR gene (NR112) and a luciferase reporter gene linked to two promoters identified in the human CYP3A4 gene, namely XREM and PXRE. […] The number of viable cells was determined and the reporter gene activity was assessed. Positive control: […]

PXR, sequence (O75469 whole entry): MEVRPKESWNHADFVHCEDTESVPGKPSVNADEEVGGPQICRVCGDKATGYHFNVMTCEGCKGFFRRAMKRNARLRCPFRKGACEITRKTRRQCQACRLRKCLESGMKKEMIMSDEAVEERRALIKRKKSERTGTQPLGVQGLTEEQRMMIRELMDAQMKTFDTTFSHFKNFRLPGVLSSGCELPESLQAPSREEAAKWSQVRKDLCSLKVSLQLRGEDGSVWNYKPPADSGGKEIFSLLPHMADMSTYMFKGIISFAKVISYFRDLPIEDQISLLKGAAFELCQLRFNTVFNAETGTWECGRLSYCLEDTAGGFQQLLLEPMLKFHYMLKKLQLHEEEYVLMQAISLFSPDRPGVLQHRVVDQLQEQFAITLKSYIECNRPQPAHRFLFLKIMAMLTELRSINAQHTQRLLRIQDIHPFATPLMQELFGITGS

Row | SMILES | CC50 at 5 days (in vitro; CC50 nM in MT-4) [nM] | other results
1 | C[C@H](NC(=O)c1cn2c(c(O)c1=O)C(=O)N1[C@@H]3CC[C@@H](C3)O[C@H]1C2)c1ccc(F)cc1 [Compound 21, (2S,5R,13aS)-N—((S)-1-(4-fluorophenyl)ethyl)-8-hydroxy-7,9-dioxo-2,3,4,5,7,9,13,13a-octahydro-2,5-methanopyrido[1′,2′:4,5]pyrazino[2,1-b][1,3]oxazepine-10-carboxamide] | 13000 | –
2 | O=C(NCc1ncc(F)cc1F)c1cn2c(c(O)c1=O)C(=O)N1[C@H]3CC[C@H](C3)[C@@H]1C2 [Compound 76, (1R,4S,12aR)-N-((3,5-difluoropyridin-2-yl)methyl)-7-hydroxy-6,8-dioxo-1,2,3,4,6,8,12,12a-octahydro-1,4-methanodipyrido[1,2-a:1′,2′-d]pyrazine-9-carboxamide] | 34600 | –
3 | O=C(NCc1ccccc1)c1cn2c(c(O)c1=O)C(=O)N1[C@H]3CC[C@H](C3)[C@@H]1C2 [Compound 94, (1R,4S,12aR)-N-benzyl-7-hydroxy-6,8-dioxo-1,2,3,4,6,8,12,12a-octahydro-1,4-methanodipyrido[1,2-a:1′,2′-d]pyrazine-9-carboxamide] | 51200 | –
4 | O=C(NCc1ncccc1C(F)(F)F)c1cn2c(c(O)c1=O)C(=O)N1[C@@H]3CC[C@@H](C3)O[C@H]1C2 [Compound 49, (2S,5R,13aS)-8-hydroxy-7,9-dioxo-N-((3-(trifluoromethyl)pyridin-2-yl)methyl)-2,3,4,5,7,9,13,13a-octahydro-2,5-methanopyrido[1′,2′:4,5]pyrazino[2,1-b][1,3]oxazepine-10-carboxamide] | 52200 | –
5 | O=C(NCc1ccc(F)cc1OC1CC1)c1cn2c(c(O)c1=O)C(=O)N1[C@H]3CC[C@H](C3)O[C@@H]1C2 [Compound 53, (2R,5S,13aR)-N-(2-cyclopropoxy-4-fluorobenzyl)-8-hydroxy-7,9-dioxo-2,3,4,5,7,9,13,13a-octahydro-2,5-methanopyrido[1′,2′:4,5]pyrazino[2,1-b][1,3]oxazepine-10-carboxamide] | 3350 | –
6 | O=C(NCc1ccc(F)c(C(F)(F)F)c1)c1cn2c(c(O)c1=O)C(=O)N1[C@@H]3CC[C@@H](C3)O[C@H]1C2 [Compound 25, (2S,5R,13aS)-N-(4-fluoro-3-(trifluoromethyl)benzyl)-8-hydroxy-7,9-dioxo-2,3,4,5,7,9,13,13a-octahydro-2,5-methanopyrido[1′,2′:4,5]pyrazino[2,1-b][1,3]oxazepine-10-carboxamide] | 5230 | –
7 | O=C(NCc1ccc(F)cc1F)c1cn2c(c(O)c1=O)C(=O)N1C(C2)[N@]2CC[C@H]1C2 (stereo partly drawn) [Compound 6, (1R,4S)-N-(2,4-difluorobenzyl)-7-hydroxy-6,8-dioxo-3,4,6,8,12,12a-hexahydro-2H-1,4-methanopyrido[1′,2′:4,5]pyrazino[1,2-a]pyrimidine-9-carboxamide] | – | Emax at 24 h, 15 µM (PXR): 0%
8 | O=C(NCc1ccc(F)cc1OC1CC1)c1cn2c(c(O)c1=O)C(=O)N1[C@@H]3CC[C@@H](C3)O[C@H]1C2 [Compound 52, (2S,5R,13aS)-N-(2-cyclopropoxy-4-fluorobenzyl)-8-hydroxy-7,9-dioxo-2,3,4,5,7,9,13,13a-octahydro-2,5-methanopyrido[1′,2′:4,5]pyrazino[2,1-b][1,3]oxazepine-10-carboxamide] | 12900 | –
9 | O=C(NC1(c2ccc(F)cc2F)CC1)c1cn2c(c(O)c1=O)C(=O)N1C(C2)O[C@H]2CC[C@@H]1C2 (stereo partly drawn) [Compound 27, (2S,5R)-N-(1-(2,4-difluorophenyl)cyclopropyl)-8-hydroxy-7,9-dioxo-2,3,4,5,7,9,13,13a-octahydro-2,5-methanopyrido[1′,2′:4,5]pyrazino[2,1-b][1,3]oxazepine-10-carboxamide] | 8750 | –
10 | C[C@H](NC(=O)c1cn2c(c(O)c1=O)C(=O)N1[C@H]3CC[C@H](C3)O[C@@H]1C2)c1ccc(F)cc1 [Compound 22, (2R,5S,13aR)-N—((S)-1-(4-fluorophenyl)ethyl)-8-hydroxy-7,9-dioxo-2,3,4,5,7,9,13,13a-octahydro-2,5-methanopyrido[1′,2′:4,5]pyrazino[2,1-b][1,3]oxazepine-10-carboxamide] | 4430 | –
11 | C[C@@H](NC(=O)c1cn2c(c(O)c1=O)C(=O)N1[C@@H]3CC[C@H](C3)O[C@@H]1C2)c1c(F)cc(F)cc1F [Compound 78, (2R,13aR)-8-hydroxy-7,9-dioxo-N—((R)-1-(2,4,6-trifluorophenyl)ethyl)-2,3,4,5,7,9,13,13a-octahydro-2,5-methanopyrido[1′,2′:4,5]pyrazino[2,1-b][1,3]oxazepine-10-carboxamide] | 3200 | –
12 | C[C@@H](NC(=O)c1cn2c(c(O)c1=O)C(=O)N1[C@H]3CC[C@H](C3)O[C@@H]1C2)c1ccc(F)cc1F [Compound 12, (2R,5S,13aR)-N—((R)-1-(2,4-difluorophenyl)ethyl)-8-hydroxy-7,9-dioxo-2,3,4,5,7,9,13,13a-octahydro-2,5-methanopyrido[1′,2′:4,5]pyrazino[2,1-b][1,3]oxazepine-10-carboxamide] | 3340 | –
13 | O=C(NCc1cc(Cl)c(F)cc1F)c1cn2c(c(O)c1=O)C(=O)N1[C@H]3CC[C@H](C3)O[C@@H]1C2 [Compound 65, (2R,5S,13aR)-N-(5-chloro-2,4-difluorobenzyl)-8-hydroxy-7,9-dioxo-2,3,4,5,7,9,13,13a-octahydro-2,5-methanopyrido[1′,2′:4,5]pyrazino[2,1-b][1,3]oxazepine-10-carboxamide] | 2510 | –
14 | O=C(NC1(c2ccc(F)cc2F)CC1)c1cn2c(c(O)c1=O)C(=O)N1C(C2)O[C@@H]2CC[C@H]1C2 (stereo partly drawn) [Compound 31, (2R,5S)-N-(1-(2,4-difluorophenyl)cyclopropyl)-8-hydroxy-7,9-dioxo-2,3,4,5,7,9,13,13a-octahydro-2,5-methanopyrido[1′,2′:4,5]pyrazino[2,1-b][1,3]oxazepine-10-carboxamide] | 4520 | –
15 | O=C(NC1(c2ccc(F)cc2F)CCOCC1)c1cn2c(c(O)c1=O)C(=O)N1C(C2)O[C@H]2CC[C@@H]1C2 (stereo partly drawn) [Compound 35, (2S,5R)-N-(4-(2,4-difluorophenyl)tetrahydro-2H-pyran-4-yl)-8-hydroxy-7,9-dioxo-2,3,4,5,7,9,13,13a-octahydro-2,5-methanopyrido[1′,2′:4,5]pyrazino[2,1-b][1,3]oxazepine-10-carboxamide] | 15500 | –
16 | O=C(NCc1ccc(Cl)c(F)c1)c1cn2c(c(O)c1=O)C(=O)N1[C@@H]3CC[C@@H](C3)O[C@H]1C2 [Compound 26, (2S,5R,13aS)-N-(4-chloro-3-fluorobenzyl)-8-hydroxy-7,9-dioxo-2,3,4,5,7,9,13,13a-octahydro-2,5-methanopyrido[1′,2′:4,5]pyrazino[2,1-b][1,3]oxazepine-10-carboxamide] | 8840 | –
17 | O=C(NC1(c2ccc(F)cc2F)CCCCC1)c1cn2c(c(O)c1=O)C(=O)N1C(C2)O[C@H]2CC[C@@H]1C2 (stereo partly drawn) [Compound 34, (2S,5R)-N-(1-(2,4-difluorophenyl)cyclohexyl)-8-hydroxy-7,9-dioxo-2,3,4,5,7,9,13,13a-octahydro-2,5-methanopyrido[1′,2′:4,5]pyrazino[2,1-b][1,3]oxazepine-10-carboxamide] | – | CC50 at 5 days (in vitro): 3580 nM
18 | O=C(NCc1cc(F)cc(F)c1)c1cn2c(c(O)c1=O)C(=O)N1[C@@H]3CC[C@@H](C3)O[C@H]1C2 [Compound 24, (2S,5R,13aS)-N-(3,5-difluorobenzyl)-8-hydroxy-7,9-dioxo-2,3,4,5,7,9,13,13a-octahydro-2,5-methanopyrido[1′,2′:4,5]pyrazino[2,1-b][1,3]oxazepine-10-carboxamide] | 12100 | –
19 | O=C(NCc1ccc(F)cc1F)c1cn2c(c(O)c1=O)C(=O)N1[C@@H]3CC[C@@H](C3)O[C@H]1C2 (racemic) [Compound 1, N-(2,4-difluorobenzyl)-8-hydroxy-7,9-dioxo-2,3,4,5,7,9,13,13a-octahydro-2,5-methanopyrido[1′,2′:4,5]pyrazino[2,1-b][1,3]oxazepine-10-carboxamide] | 5820 | –
20 | C[C@H](NC(=O)c1cn2c(c(O)c1=O)C(=O)N1[C@H]3CC[C@H](C3)O[C@@H]1C2)c1ccc(F)cc1F [Compound 14, (2R,5S,13aR)-N—((S)-1-(2,4-difluorophenyl)ethyl)-8-hydroxy-7,9-dioxo-2,3,4,5,7,9,13,13a-octahydro-2,5-methanopyrido[1′,2′:4,5]pyrazino[2,1-b][1,3]oxazepine-10-carboxamide] | 4940 | –
21 | O=C(NCc1ccc(F)cc1C(F)(F)F)c1cn2c(c(O)c1=O)C(=O)N1[C@H]3CC[C@H](C3)O[C@@H]1C2 [Compound 62, (2R,5S,13aR)-N-(4-fluoro-2-(trifluoromethyl)benzyl)-8-hydroxy-7,9-dioxo-2,3,4,5,7,9,13,13a-octahydro-2,5-methanopyrido[1′,2′:4,5]pyrazino[2,1-b][1,3]oxazepine-10-carboxamide] | 3490 | –
22 | O=C(NCc1cccc(C(F)(F)F)c1F)c1cn2c(c(O)c1=O)C(=O)N1[C@H]3CC[C@H](C3)[C@@H]1C2 [Compound 74, (1R,4S,12aR)-N-(2-fluoro-3-(trifluoromethyl)benzyl)-7-hydroxy-6,8-dioxo-1,2,3,4,6,8,12,12a-octahydro-1,4-methanodipyrido[1,2-a:1′,2′-d]pyrazine-9-carboxamide] | 4340 | –
